Values quoted from earlier work in US20240398684A1, “HIGH UV PROTECTION CLEANSING COMPOSITION” (Conopco, Inc., d/b/a UNILEVER, priority 2020, published 2024).

Conditions: Reference: Photochem. Photobiol. Sci., 2010,9, 464-469
For `O=S(=O)([O-])c1cc(S(=O)(=O)O)cc2[nH]c(-c3ccc(-c4nc5c(S(=O)(=O)[O-])cc(S(=O)(=O)O)cc5[nH]4)cc3)nc12.[Na+].[Na+]` [BD, Di sodium phenyl dibenzimidazole tetra sulfonate], the absorption maxima is listed as 335 nm.
For `O=S(=O)(O)c1ccc2[nH]c(-c3ccccc3)nc2c1` [PBSA, Phenyl benzimidazole sulphonic acid], the absorption maxima is listed as 302 nm.
In the case of `CC1(C)C2CCC1(CS(=O)(=O)O)C(=O)C2=Cc1ccc(C=C2C(=O)C3(CS(=O)(=O)O)CCC2C3(C)C)cc1` [TDSA, Terephthalylidene dicamphor sulfonic acid], the absorption maxima is given as 345 nm.
